Source: publication PMC9883826 (Scientific Reports, 2023)
In brackets after ≈: the same amount, converted by molar mass. Entries after “also recorded” stand apart in the source; their conditions may differ. Where a name gives a salt, the structure may show the parent alone. Read-outs that look alike come from different tables or passages of the source.

Assays:
[1] = in vivo; cited from earlier work
in vitro = details: dog
HSV-2 [2] = details: cited from earlier work
[3] = system: influenza A/chicken/Egypt/N12640A/2016(H5N1); experiment: microbe, parasite or virus in culture; format: cell-based, influenza A virus
influenza A/H1N1 virus = experiment: microbe, parasite or virus in culture; format: cell-based; details: H1N1, read-out: Viral inhibition (%) Mean
influenza A/H5N1 virus [4] = experiment: microbe, parasite or virus in culture; format: cell-based
influenza A/H5N1 virus [5] = experiment: microbe, parasite or virus in culture; format: cell-based; details: H5N1, read-out: Viral inhibition (%) Mean
influenza A/H5N1 virus [6] = experiment: microbe, parasite or virus in culture; format: cell-based; remark: listed apart in the source
[7] = system: influenza A/Egypt/NRC098/2019(H1N1); experiment: microbe, parasite or virus in culture; format: cell-based, influenza A virus; details: for IC50: Influenza A virus, H1N1, MDCK
influenza A/H5N1 virus [8] = experiment: microbe, parasite or virus in culture; format: cell-based; remark: listed apart in the source
[9] = system: severe acute respiratory syndrome coronavirus (SARS-CoV); details: cited from earlier work
MDCK cells = details: dog
DENV-2 (dengue virus-2) = details: cited from earlier work
HSV-2 [10] = details: cited from earlier work; remark: listed apart in the source
HSV-1 = details: cited from earlier work
[11] = Influenza A virus, H5N1, MDCK, 72 h
[12] = Influenza A virus, H5N1, read-out: Viral replication (%) viral inhibition
[13] = Influenza A virus, H5N1, read-out: Viricidal (%) viral inhibition
[14] = Influenza A virus, H5N1, read-out: Viral adsorption (%) viral inhibition
[15] = Influenza A virus, H5N1, MDCK, read-out: PIC50 H5N1

In the case of `O=C1C[C@@H]2OCC=C3CN4CC[C@]56c7ccccc7N1[C@H]5[C@H]2[C@H]3C[C@H]46` [strychnine], the “high dose causing muscle contraction and convulsions that can lead to respiratory paralysis” value [1] is given as 1.5 mg/kg.
In the case of `COc1ccc2c(c1)[nH]c1c(C)nccc12` [Harmine], the CC50 (in vitro) is listed as greater than 10000 µg/mL, the EC50 (HSV-2 [2]) is listed as 1470 nM and the “anti-influenza activity against avian influenza A/H5N1 virus (in words)” value [3] is listed as “poor or no antiviral potential activity; also recorded: no effect; also recorded: no anti-influenza activity”. The IC50 [3, 11] was greater than 10000 µg/mL.
In the case of `CC[C@@H](CO)NC(=O)[C@@H]1C=C2c3cccc4[nH]cc(c34)C[C@H]2N(C)C1` [Methyl ergometrine], the CC50 (in vitro) is reported as 8230 µg/mL (≈ 24.2 mM), the “anti-influenza activity against avian influenza A/H5N1 virus (in words)” value [3] is reported as “poor or no antiviral potential activity” and the IC50 [3, 11] is reported as greater than 1000 µg/mL.
In the case of `CC1=NCCc2c1[nH]c1cc(O)ccc21` [Harmalol], the inhibition at 0.1 µg/mL (influenza A/H1N1 virus) is reported as 74.3%, the inhibition at 1 µg/mL (influenza A/H1N1 virus) is reported as 79.6% and the inhibition at 10 µg/mL (influenza A/H1N1 virus) is reported as 91.8%. For the same compound, the “main stage of antiviral action: viral replication (in words)” value (influenza A/H5N1 virus [4]) was “interference with the viral replication compartment”, the inhibition at 0.1 µg/mL (influenza A/H5N1 virus [4]; [12]) was 87.5% and the inhibition at 1 µg/mL (influenza A/H5N1 virus [4]; [12]) was 96.9%. It also gave an inhibition at 10 µg/mL (influenza A/H5N1 virus [4]; [12]) of 98.7%, an inhibition at 0.1 µg/mL (influenza A/H5N1 virus [5]) of 54.7% and an inhibition at 1 µg/mL (influenza A/H5N1 virus [5]) of 73.3%. For the same compound, the inhibition at 10 µg/mL (influenza A/H5N1 virus [5]) was 86.4%, the inhibition at 0.1 µg/mL (influenza A/H5N1 virus [6]; [13]) was 41.5% and the inhibition at 1 µg/mL (influenza A/H5N1 virus [6]; [13]) was 50.9%. The inhibition at 10 µg/mL (influenza A/H5N1 virus [6]; [13]) was 58%, the CC50 (in vitro) was greater than 10000 µg/mL and the “Selectivity index (SI)” value [7] was > 2.8*10^5. For the same compound, the IC50 ([7]; 72 h) was 0.035 µg/mL, the IC50 ([7]; read-out: PIC50 H1N1) was 20 nM and the inhibition at 0.1 µg/mL (influenza A/H5N1 virus [8]; [14]) was 60.3%. The inhibition at 1 µg/mL (influenza A/H5N1 virus [8]; [14]) was 74.5%, the inhibition at 10 µg/mL (influenza A/H5N1 virus [8]; [14]) was 82.1% and the “Selectivity index (SI)” value [3] was > 5*10^5. It also gave an IC50 [3, 11] of 0.02 µg/mL and an IC50 [3, 15] of 21 nM.
With `CNC(=O)Oc1ccc2c(c1)[C@]1(C)CCN(C)[C@@H]1N2C` [Eserine] the CC50 (in vitro) was greater than 10000 µg/mL, the “anti-influenza activity against human influenza A/H1N1 virus (in words)” value [7] was “no antiviral activity” and the “anti-influenza activity against avian influenza A/H5N1 virus (in words)” value [3] was “poor or no antiviral potential activity”. It also gave an IC50 [3, 11] greater than 10000 µg/mL.
For `CC(=O)N[C@H]1[C@H]([C@H](O)[C@H](O)CO)OC(C(=O)O)=C[C@@H]1N=C(N)N` [Zanamivir, reference compound], the CC50 (in vitro) was greater than 10000 µg/mL, the “Selectivity index (SI)” value [7] was > 3.4*10^4 and the IC50 ([7]; 72 h) was 0.291 µg/mL. The “Selectivity index (SI)” value [3] was > 1.26*10^5 and the IC50 [3, 11] was 0.079 µg/mL.
With `c1ccc2c(c1)[nH]c1cnccc12` [Norharmane] the CC50 (in vitro) was greater than 10000 µg/mL, the “anti-influenza activity against avian influenza A/H5N1 virus (in words)” value [3] was “poor or no antiviral potential activity; also recorded: no effect” and the IC50 [3, 11] was greater than 10000 µg/mL.
For `COC(=O)[C@H]1[C@H]2C[C@@H]3c4[nH]c5cc(OC)ccc5c4CCN3C[C@H]2C[C@@H](OC(=O)c2cc(OC)c(OC)c(OC)c2)[C@@H]1OC` [Reserpine], the EC50 [9] is listed as 3400 nM, the CC50 (in vitro) is listed as 1400 µg/mL (≈ 2.3 mM) and the “anti-influenza activity against human influenza A/H1N1 virus (in words)” value [7] is listed as “moderate anti-influenza potential”. For the same compound, the “Selectivity index (SI)” value [3] was greater than 33, the “anti-influenza activity against avian influenza A/H5N1 virus (in words)” value [3] was “moderate anti-influenza activity” and the IC50 [3, 11] was 42.4 µg/mL.
Work on `O=C1C[C@@H]2OCC=C3CN4CC[C@]56c7ccccc7N1[C@H]5[C@H]2[C@H]3C[C@H]46` [Strychnine Sulfate, Strychnine sulfate] yielded an inhibition at 1 µg/mL (influenza A/H1N1 virus) of 65.5%, an inhibition at 10 µg/mL (influenza A/H1N1 virus) of 71.6% and an inhibition at 100 µg/mL (influenza A/H1N1 virus) of 87.4%. For the same compound, the inhibition at 1 µg/mL (influenza A/H5N1 virus [4]; [12]) was 19.4%, the inhibition at 10 µg/mL (influenza A/H5N1 virus [4]; [12]) was 27.3% and the inhibition at 100 µg/mL (influenza A/H5N1 virus [4]; [12]) was 42%. It also gave an inhibition at 1 µg/mL (influenza A/H5N1 virus [5]) of 74.4%, an inhibition at 10 µg/mL (influenza A/H5N1 virus [5]) of 84% and an inhibition at 100 µg/mL (influenza A/H5N1 virus [5]) of 96.3%. It also gave an inhibition at 1 µg/mL (influenza A/H5N1 virus [6]; [13]) of 29.4%, an inhibition at 10 µg/mL (influenza A/H5N1 virus [6]; [13]) of 37% and an inhibition at 100 µg/mL (influenza A/H5N1 virus [6]; [13]) of 49.2%. The CC50 (in vitro) was greater than 10000 µg/mL, the “Selectivity index (SI)” value [7] was > 1.67*10^5 and the IC50 ([7]; 72 h) was 0.06 µg/mL. For the same compound, the “main stage of antiviral action: viral adsorption (in words)” value (influenza A/H5N1 virus [8]) was “hindering IAV adsorption to the host cell (MDCK) receptors”, the inhibition at 1 µg/mL (influenza A/H5N1 virus [8]; [14]) was 90.1% and the inhibition at 10 µg/mL (influenza A/H5N1 virus [8]; [14]) was 99.5%. For the same compound, the inhibition at 100 µg/mL (influenza A/H5N1 virus [8]; [14]) was 99%, the IC50 [3] was 11.851 µg/mL and the “Selectivity index (SI)” value [3] was greater than 843. It also gave an IC50 [3, 11] of 11.8 µg/mL.
With `NC12CC3CC(CC(C3)C1)C2` [Amantadine HCl, reference compound] the CC50 (MDCK cells) was 1103 µg/mL, the CC50 (in vitro) was 1100 µg/mL and the “Selectivity index (SI)” value [7] was 74.32. For the same compound, the IC50 ([7]; 72 h) was 14.9 µg/mL, the “Selectivity index (SI)” value [3] was 62.71 and the IC50 [3, 11] was 17.6 µg/mL.
In the case of `COc1ccc2c3c([nH]c2c1)C(C)=NCC3` [Harmaline], the inhibition at 1 µg/mL (influenza A/H1N1 virus) is reported as 66.7%, the inhibition at 10 µg/mL (influenza A/H1N1 virus) is reported as 77.8% and the inhibition at 100 µg/mL (influenza A/H1N1 virus) is reported as 86.5%. For the same compound, the inhibition at 1 µg/mL (influenza A/H5N1 virus [4]; [12]) was 28.3%, the inhibition at 10 µg/mL (influenza A/H5N1 virus [4]; [12]) was 40.3% and the inhibition at 100 µg/mL (influenza A/H5N1 virus [4]; [12]) was 48.7%. The inhibition at 1 µg/mL (influenza A/H5N1 virus [5]) was 72.6%, the inhibition at 10 µg/mL (influenza A/H5N1 virus [5]) was 87.7% and the inhibition at 100 µg/mL (influenza A/H5N1 virus [5]) was 94.2%. The “main stage of antiviral action: viricidal (in words)” value (influenza A/H5N1 virus [6]) was “direct cell-free viricidal effect”, the inhibition at 1 µg/mL (influenza A/H5N1 virus [6]; [13]) was 91% and the inhibition at 10 µg/mL (influenza A/H5N1 virus [6]; [13]) was 96.7%. For the same compound, the inhibition at 100 µg/mL (influenza A/H5N1 virus [6]; [13]) was 98.6%, the CC50 (in vitro) was 475 µg/mL (≈ 2.22 mM) and the “Selectivity index (SI)” value [7] was 8482. It also gave an IC50 ([7]; 72 h) of 0.056 µg/mL, an IC50 ([7]; read-out: PIC50 H1N1) of 20 nM and an inhibition at 1 µg/mL (influenza A/H5N1 virus [8]; [14]) of 34%. For the same compound, the inhibition at 10 µg/mL (influenza A/H5N1 virus [8]; [14]) was 46.2%, the inhibition at 100 µg/mL (influenza A/H5N1 virus [8]; [14]) was 51.8% and the “Selectivity index (SI)” value [3] was 138. For the same compound, the IC50 [3, 11] was 3.42 µg/mL and the IC50 [3, 15] was 28100 nM.
In the case of `COc1ccc2c3ccnc(C)c3n(C)c2c1` [9 N methylharmine], the EC50 (DENV-2 (dengue virus-2)) is given as 3200 ± 600 nM.
`Cc1nccc2c1[nH]c1ccccc12` [Harmane] showed an inhibition at 10 µg/mL (influenza A/H1N1 virus) of 55.1%, an inhibition at 100 µg/mL (influenza A/H1N1 virus) of 74.4% and an inhibition at 1000 µg/mL (influenza A/H1N1 virus) of 84.6%. The “main stage of antiviral action: viral replication (in words)” value (influenza A/H5N1 virus [4]) was “interference with the viral replication compartment”, the inhibition at 10 µg/mL (influenza A/H5N1 virus [4]; [12]) was 83.3% and the inhibition at 100 µg/mL (influenza A/H5N1 virus [4]; [12]) was 97.5%. It also gave an inhibition at 1000 µg/mL (influenza A/H5N1 virus [4]; [12]) of 96.7%, an inhibition at 10 µg/mL (influenza A/H5N1 virus [5]) of 65.5% and an inhibition at 100 µg/mL (influenza A/H5N1 virus [5]) of 74.4%. For the same compound, the inhibition at 1000 µg/mL (influenza A/H5N1 virus [5]) was 85%, the EC50 (HSV-2 [10]) was 71.8 µg/mL (≈ 0.394 mM) and the EC50 (HSV-1) was 4.90 µg/mL (≈ 0.0269 mM). The inhibition at 10 µg/mL (influenza A/H5N1 virus [6]; [13]) was 31.8%, the inhibition at 100 µg/mL (influenza A/H5N1 virus [6]; [13]) was 41.8% and the inhibition at 1000 µg/mL (influenza A/H5N1 virus [6]; [13]) was 82.1%. For the same compound, the CC50 (in vitro) was 7180 µg/mL (≈ 39.4 mM), the “Selectivity index (SI)” value [7] was > 2.17*10^5 and the IC50 ([7]; 72 h) was 0.033 µg/mL. The IC50 ([7]; read-out: PIC50 H1N1) was 18.2 nM, the inhibition at 10 µg/mL (influenza A/H5N1 virus [8]; [14]) was 43.4% and the inhibition at 100 µg/mL (influenza A/H5N1 virus [8]; [14]) was 48.7%. The inhibition at 1000 µg/mL (influenza A/H5N1 virus [8]; [14]) was 61.4%, the IC50 [3, 11] was 0.023 µg/mL and the IC50 [3, 15] was 23 nM.
With `COc1cc2c(cc1OC)[C@@]13CCN4CC5=CCO[C@H]6CC(=O)N2[C@H]1[C@H]6[C@H]5C[C@H]43` [Brucine] the CC50 (in vitro) was greater than 10000 µg/mL, the “anti-influenza activity against avian influenza A/H5N1 virus (in words)” value [3] was “poor or no antiviral potential activity” and the IC50 [3, 11] was greater than 10000 µg/mL.
